Patent US20250179033A1 (priority 2021, published 2025)
Values joined by “and” are separate entries in the source; they are usually repeats but may differ in a detail not shown here. Identical values can stand only once.

How the values were obtained:
Caco-2 cells = assay: Caco-2 permeability; type: in vitro ADME; details: 10 μM
Description: (§1) Caco-2 Permeability: Caco-2 cells (ATCC®, Manassas, Virginia, United States of America) were grown on 24-well (pore size: 0.4 μm) polycarbonate filters. The monolayers were pre-incubated with pre-warmed HBSS (Hank's balanced salt solution) containing 2.5% HEPES buffer (pH 7.4) for 0.5 h at 37° C. After pre-incubation, the buffer was removed, and the experimental compounds were added to reach a final concentration of 10 μM. 2% bovine serum albumin (BSA) was added to the receiver buffer for the study. The total volume was 400 μL for the apical (A) side and 1200 μL for the basolateral (B) side. For apical to basolateral transport study (A-B), 100 μL each was collected from both sides for sample analysis at the start of the assay and then 200 μL was collected from the […] at 90 minutes (end of the study). The same timepoints and amounts were used for the basolateral to apical transport study (B-A).
(§2) The apparent permeability coefficient (Papp) was calculated from the following equation.
(§3) • v=Volume of the receiver cell • A=Exposed surface area (0.64 cm^2) • C=Initial donor concentration • ∂C/∂t=Change in receiver concentration over time

E. coli PQ37 = assay: Mutagenicity evaluation (SOS-chromotest); type: cell-based, Escherichia coli; details: 10 mg/mL
Description: Mutagenicity evaluation: Escherichia coli PQ37 strain was grown overnight at 37° C., with shaking, in Luria Broth Base supplemented with 50 μg/mL Ampicillin. Bacteria were grown to mid-logarithmic phase and adjusted to an optical density of 0.4.
The second day, Luria Broth Base supplemented with 1.5% Agar was autoclaved for 15 minutes at 121° C. and then put into a water bath at 55° C. for 1 hour.
80 mL of warm agar was transferred into a plastic bottle (Milian, PETG 2019-0125) supplemented with […] ampicillin and 0.005% X-Gal (dissolved into DMF). 4 mL of E. coli PQ37 was added to the mixture and 70 mL of it was transferred into a square petri dish (Grenier Bio-One, Kremsmunster, Austria, 120×120 mm). Petri dish containing the mixture was dried 15 minutes at RT and once the mixture became solid, 6 mm absorbent disks were stuck on the plate.
5 μL of each compound were added on the disk with a pipet sold under the tradename PIPETMAN® P20 (Gilson S.A.S., Villiers-Le-Bel, France) and the petri dish was incubated overnight at 37° C.
The third day, zones of inhibition were recorded with a ruler and a picture of the plate was taken with a scanner (Canon 8800F, Cannon U.S.A., Inc., Melville, New York, United States of America).
Zone of inhibition was calculated by eye using a ruler and presence/absence of blue halo was reporter.

Huh-7D12 = assay: 99% toxic dose (TD99) in Huh-7D12; type: cell-based
CYP1A2 = molecular target: T1, CYP1A2 (Homo sapiens, UniProt P05177); assay: Human CYP inhibition in human liver microsomes; type: in vitro ADME; details: substrate phenacetin, read-out: CYP inhibition IC50, 1A2
T1 sequence (P05177 1-516): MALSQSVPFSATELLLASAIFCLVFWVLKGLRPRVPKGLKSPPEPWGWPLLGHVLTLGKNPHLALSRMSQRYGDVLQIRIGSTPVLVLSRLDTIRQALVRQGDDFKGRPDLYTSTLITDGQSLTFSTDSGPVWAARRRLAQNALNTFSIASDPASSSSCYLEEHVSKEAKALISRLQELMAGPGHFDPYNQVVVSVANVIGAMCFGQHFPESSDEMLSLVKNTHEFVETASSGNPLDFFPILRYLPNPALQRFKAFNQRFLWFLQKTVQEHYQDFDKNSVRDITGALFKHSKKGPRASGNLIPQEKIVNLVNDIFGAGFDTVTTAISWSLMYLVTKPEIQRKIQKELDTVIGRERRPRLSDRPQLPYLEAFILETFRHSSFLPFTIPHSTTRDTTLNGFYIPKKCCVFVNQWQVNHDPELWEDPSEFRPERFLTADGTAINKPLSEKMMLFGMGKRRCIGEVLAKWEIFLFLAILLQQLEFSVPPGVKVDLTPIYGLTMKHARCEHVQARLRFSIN
Description: (§4) Study samples (containing either control inhibitor or test compound) were added into the tubes, vortexed gently and pre-incubated for 5 min at 37° C. 20 μL of NADPH solution was aliquoted into all tubes, then vortexed to start the reaction and to assure adequate mixture of the NADPH. After mixing, the tubes were incubated for 20 min at 37° C. in a shaking water bath and then quenched in […] formic acid/acetonitrile solution. After quenching, the samples were vortexed vigorously for 1 min and centrifuged at 4,000 rpm for 15 min (4° C.). 100 μL of supernatant was transferred to 0.65 ml tubes for LCMS analysis by the bioanalytical method described earlier. The CYP450 substrates and control inhibitors for each enzyme was as follows: CYP1A2 (phenacetin, naphthoflavone), CYP2C9 (diclofenac, sulfaphenazole), CYP2C19 (omeprazole, tranylcypromine), CYP2D6 (dextromethorphan, quinidine), CYP3A4 (midazolam, ketoconazole).

CYP2C19 = CYP2C19 (Homo sapiens, UniProt P33261); assay: Human CYP inhibition in human liver microsomes; type: in vitro ADME; details: substrate omeprazole, read-out: CYP inhibition IC50, 2C19
Chain of CYP2C19 (P33261 whole entry): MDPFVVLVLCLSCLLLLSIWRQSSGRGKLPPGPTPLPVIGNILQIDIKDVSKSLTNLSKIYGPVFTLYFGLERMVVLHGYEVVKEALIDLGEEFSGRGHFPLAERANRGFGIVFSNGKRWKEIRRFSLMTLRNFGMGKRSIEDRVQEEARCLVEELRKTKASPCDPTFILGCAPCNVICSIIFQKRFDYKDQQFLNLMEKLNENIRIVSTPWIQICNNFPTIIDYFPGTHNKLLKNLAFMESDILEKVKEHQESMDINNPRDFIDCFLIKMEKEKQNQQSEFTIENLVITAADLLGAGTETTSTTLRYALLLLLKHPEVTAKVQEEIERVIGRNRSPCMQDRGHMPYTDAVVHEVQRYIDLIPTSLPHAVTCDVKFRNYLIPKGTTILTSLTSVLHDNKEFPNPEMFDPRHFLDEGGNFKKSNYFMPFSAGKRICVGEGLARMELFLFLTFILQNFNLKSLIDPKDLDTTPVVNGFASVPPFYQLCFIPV
Description: as §4

CYP2C9 = CYP2C9 (Homo sapiens, UniProt P11712); assay: Human CYP inhibition in human liver microsomes; type: in vitro ADME; details: substrate diclofenac, read-out: CYP inhibition IC50, 2C9
Chain of CYP2C9 (P11712 whole entry): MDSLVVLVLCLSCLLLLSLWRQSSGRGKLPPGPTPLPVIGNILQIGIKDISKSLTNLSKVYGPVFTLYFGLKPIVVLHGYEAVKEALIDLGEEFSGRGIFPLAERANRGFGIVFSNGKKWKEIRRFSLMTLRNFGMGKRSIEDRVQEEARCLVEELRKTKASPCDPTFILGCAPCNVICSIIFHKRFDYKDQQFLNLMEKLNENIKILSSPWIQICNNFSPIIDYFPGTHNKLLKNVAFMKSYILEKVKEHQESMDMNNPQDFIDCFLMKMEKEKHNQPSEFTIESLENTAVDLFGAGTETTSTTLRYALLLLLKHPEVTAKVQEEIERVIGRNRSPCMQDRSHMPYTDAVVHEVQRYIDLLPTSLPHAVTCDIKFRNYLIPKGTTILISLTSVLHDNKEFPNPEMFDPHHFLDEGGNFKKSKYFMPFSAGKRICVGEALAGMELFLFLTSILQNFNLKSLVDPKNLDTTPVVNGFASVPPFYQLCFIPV
Description: as §4

Caco-2 permeability = type: in vitro ADME; details: human, Caco-2, pH 7.4
Description: as §1, §2, §3

Row | Compound | Caco-2 Papp A-B (Caco-2 cells; 90 minutes) | Caco-2 Papp B-A (Caco-2 cells; 90 minutes) | Caco-2 Efflux ratio (Caco-2 cells; human, Caco-2, 90 min, pH 7.4) | Genotoxicity in the SOS-chromotest (E. coli PQ37) | 99% toxic dose (TD99) (Huh-7D12) | IC50 (CYP1A2) | IC50 (CYP2C19) | IC50 (CYP2C9) | efflux ratio at 90 min, 10 μM (Caco-2 permeability) | Papp A→B at 90 min, 10 μM (Caco-2 permeability; 10 μM, 90 minutes) | Papp B→A at 90 min, 10 μM (Caco-2 permeability; 10 μM, 90 minutes)
1 | Nc1nc(Nc2ccc(Cl)cc2)nn1S(=O)(=O)c1ccc2ccccc2c1 [Compound 1, N3-(4-chlorophenyl)-1-(2-naphthylsulfonyl)-1,2,4-triazole-3,5-diamine] | 0.138 ×10⁻⁶ cm/s | 0.122 ×10⁻⁶ cm/s | (×10−6 cm/s) Efflux ratio = 0.883 | did not appear to be genotoxic | > 11 μg/ml and > 27.5 μM |  |  |  |  |  | 
2 | N#C/C=C/c1ccc2c(S(=O)(=O)n3nc(Nc4ccc(C#N)c(Cl)c4)nc3N)cccc2c1 [Compound 20, 4-[[5-amino-1-[[6-[2-cyanovinyl]-1-naphthyl]sulfonyl]-1,2,4-triazol-3-yl]amino]-2-chloro-benzonitrile] |  |  |  |  |  | > 50 µM | 10.6 µM | 1.42 µM | 1 | 0.4 ×10⁻⁶ cm/s | 0.4 ×10⁻⁶ cm/s
